How the values were obtained:
Type in all cases: cell-based, human
[1] = tested on: histone H4; experiment: Western blot of histone H4 modifications, H1299 cells; conditions: total lysates, vs Scr
From the text: Fig. 2 NatD is required for lung cancer cell migration and invasion in vitro. a Quantitative real-time PCR analysis of NatD mRNA levels normalized to GAPDH in scrambled control cells (Scr) and NatD-KD1 and NatD-KD2 cells. Results are shown as mean ± s.d. from three independent experiments. Two-tailed Student’s t-test was used. **P < 0.01 compared to Scr control. b Western blot analysis of NatD and Nt-ac-H4 protein levels in scrambled, NatD-KD1, and NatD-KD2 cells. GAPDH and histone H4 served as loading controls. Blots are representative of three independent experiments. c Representative images from wound healing assay of scrambled, NatD-KD1, and NatD-KD2 cells from three independent experiments (left panels). Wound healing assay results are quantified in the histogram (right panel). Results are shown as mean ± s.d. from three independent experiments. Two-tailed Student’s t-test was used. **P < 0.01 compared to Scr control. d Representative images of the migration of scrambled, NatD-KD1, and NatD-KD2 cells in a time-lapse cell tracker migration assay from three independent experiments. Representative images of the migration (e) and invasion (f) of scramble, NatD-KD1, and NatD-KD2 cells with transwell assay from three independent experiments (top panel). Cell counts for the corresponding assays of at least four random microscope fields (×100 magnification). Cell migration and invasion are expressed as a percentage of control (bottom panel). Results are shown as mean ± s.d. from three independent experiments. Two-tailed Student’s t-test was used. **P < 0.01 compared to Scr control
Fig. 6 Nt-acetylation of histone H4 antagonizes phosphorylation of histone H4 serine 1 to regulate Slug expression. a Western blot analysis of indicated histone H4 modifications in Scr and NatD-KD H1299 cells. Histone H4 served as a loading control. b ChIP analysis of the enrichment of indicated histone H4 modifications on the Slug promoter in Scr and NatD-KD H1299 cells. IgG served as a negative control. Results are shown as mean ± s.d. from three independent experiments; two-tailed Student’s t-test, *P < 0.05, **P < 0.01 compared with the Scr control. c ChIP analysis of the enrichment of H3K4me3 and H3K27me3 on the Slug promoter in Scr and NatD-KD H1299 cells. IgG served as a negative control. Results are shown as mean ± s.d. from three independent experiments; two-tailed Student’s t-test, **P < 0.01 compared with the Scr control. d Western blot analysis of indicated proteins from H1299 cells overexpressing NatDΔ or wild-type NatD. Histone H4 served as a loading control. e ChIP analysis of the enrichment of Nt-ac-H4 and H4S1ph on Slug promoter in H1299 cells overexpressing NatDΔ or wild-type NatD. IgG served as a negative control. Results are shown as mean ± s.d. from three independent experiments; two-tailed Student’s t-test, *P < 0.05, **P < 0.01 compared with the wild-type control
Cellular proteins were extracted by RIPA lysis buffer at high salt concentration (420 mM NaCl), and western blot analysis was performed in accordance with standard protocols. Scans of enhanced chemiluminescence (ECL) films showing uncropped blots are presented in Supplementary Fig. 10. […]

[2] = tested on: H1299 cells; experiment: Time-lapse cell-tracking, H1299 cells; conditions: HoloMonitor M4, vs Scr
From the text: Fig. 2 NatD is required for lung cancer cell migration and invasion in vitro. a Quantitative real-time PCR analysis of NatD mRNA levels normalized to GAPDH in scrambled control cells (Scr) and NatD-KD1 and NatD-KD2 cells. Results are shown as mean ± s.d. from three independent experiments. Two-tailed Student’s t-test was used. **P < 0.01 compared to Scr control. b Western blot analysis of NatD and Nt-ac-H4 protein levels in scrambled, NatD-KD1, and NatD-KD2 cells. GAPDH and histone H4 served as loading controls. Blots are representative of three independent experiments. c Representative images from wound healing assay of scrambled, NatD-KD1, and NatD-KD2 cells from three independent experiments (left panels). Wound healing assay results are quantified in the histogram (right panel). […] Cell migration and invasion are expressed as a percentage of control (bottom panel). […]
The in vitro viability of H1299 cells was assessed using the Cell Counting Kit-8 (CCK-8, Dojindo, Japan) according to the manufacturer’s protocol. Flow cytometric analysis of apoptosis was assessed by Annexin V and PI staining using the Annexin V-APC Apoptosis Detection Kit (KeyGEN BioTECH, China) according to the manufacturer’s guide. […] The samples were analyzed by flow cytometry (Becton Dickinson, NJ, USA), and results were analyzed with FlowJo software according to the manufacturer’s instructions. […]

[3] = tested on: A549 cells; experiment: Transwell migration and invasion assay, A549 cells; conditions: vs Scr
Procedure: The in vitro viability of H1299 cells was assessed using the Cell Counting Kit-8 (CCK-8, Dojindo, Japan) according to the manufacturer’s protocol. Flow cytometric analysis of apoptosis was assessed by Annexin V and PI staining using the Annexin V-APC Apoptosis Detection Kit (KeyGEN BioTECH, China) according to the manufacturer’s guide. For cell cycle analysis, cells were harvested and fixed at 4 °C overnight with 70% ethanol. Cells were washed twice with PBS, and their DNA was stained using a Cell Cycle Detection Kit (KeyGEN BioTECH, China). The samples were analyzed by flow cytometry (Becton Dickinson, NJ, USA), and results were analyzed with FlowJo software according to the manufacturer’s instructions. For the wound healing assay, cells were plated to confluence in a 6-well plate, and the cell monolayer was scratched using a pipette tip. Representative photos were taken using a digital camera mounted on an inverted microscope (Olympus) at indicated times. Live cell imaging was performed using the HoloMonitor M4 time-lapse cytometer (Phase Holographic Imaging, Sweden). […]
of A549 cells. […] (bottom) Quantification of cell migration and invasion expressed as a percentage of Scr control; mean ± s.d. from three independent experiments; two-tailed Student’s t-test, **P<0.01 compared to Scr control. […]

Row | Substance | level of H4R3me2a [1] | level of H4R3me2s [1] | level of H4S1ph [1] | level of Nt-ac-H4 [1] | levels of H4K5ac, H4K8ac, or H4K12ac [1] | level of Nt-ac-H4 ([1]; listed as NatD knockdown) | random motility [2] | cell migration and invasion (transwell) [3]
1 | NatD-KD2: Human NatD shRNA KD2: 5′-GGTTGAATGTCTCCATTGA-3′, lentiviral (shRNA lentiviral) | slightly increased | slightly decreased | significantly increased | significantly reduced | No significant change | greatly decreased | lower random motility | inhibits cell migration and invasion
2 | NatD-KD1: Human NatD shRNA KD1: 5′-GATGAAGAAGGTTATGTTA-3′, lentiviral (shRNA, lentiviral) |  |  |  | significantly reduced |  |  | lower random motility | inhibits cell migration and invasion
